These results are taken from patent US9926293B2, “Multivalent RAS binding compounds” (THE TRUSTEES OF COLUMBIA UNIVERSITY IN THE CITY OF NEW YORK, priority 2014, dated 2018).

The subject of data set [1] is A549 (KRAS^G12S). The experiment in a line: Cell viability assay (384-well, Alamar blue). The format is cell-based. The conditions noted are these: Homo sapiens, Table 8, 48 hours. The protocol: (§1) All cell culture assays were incubated at 37° C., 5% CO2 in media containing Dulbecco's Modified Eagle Medium (DMEM) with 10% fetal bovine serum (FBS) and 1% penicillin-streptomycin (PS). 384-well format for EC50 determination: cells were trypsinized, counted, and seeded into 384-well plates at 1,000 cells/well. After 12-16 hours, compounds (as 50 mM stocks in DMSO) were arrayed in an 8- or 16-point dilution series in 384-well polypropylene plates. Compound solutions were transferred at a 1:5 dilution into the assay plates. After 48 hours, a 50% Alamar blue solution was added to a final concentration of 10% Alamar blue. After 6 hours of incubation, fluorescence intensity was determined using a Victor3 plate reader (Perkin Elmer) with a 535 nm excitation filter and a 590 nm emission filter. All compound measurements were performed in triplicate. For experiments performed in 6-well format, cells were trypsinized, counted, and seeded into 6-well plates at 200,000 cells per well 16 h prior to use. Media was then aspirated and replaced with 2 mL of media containing compounds at the indicated concentrations (from 10 mM stocks in DMSO). After 24 hours, cells were trypsinized and viability was determined using Trypan Blue exclusion assay.
On the technique in general: Resazurin is reduced to fluorescent resorufin, in cell work by metabolically active cells.

The test system of data set [2] is H441 (KRAS^G12V). The data set can be described thus: Cell viability assay (384-well, Alamar blue). The format is cell-based. To be noted: Homo sapiens, NCI-H441, Table 8, 48 hours. As for the experimental part:
as §1

The subject of data set [3] is DLD1 (KRAS^Q61H). The experiment in a line: Cell viability assay (384-well, Alamar blue). The format is cell-based. The conditions noted are these: Homo sapiens, DLD-1, Table 8, 48 hours. The protocol: as §1
The subject of data set [4] is H460 (KRAS^Q61H). The data set can be described thus: Cell viability assay (384-well, Alamar blue). Type of data set: cell-based. To be noted: Homo sapiens, NCI-H460, Table 8, 48 hours. As for the experimental part:
as §1

In data set [5] the test system is H23 (KRAS^G12C). The data set can be described thus: Cell viability assay (384-well, Alamar blue). The format is cell-based. The conditions noted are these: Table 8, 48 hours. The protocol: as §1
Data set [6] has as its system H358 (KRAS^G12C). The data set can be described thus: Cell viability assay (384-well, Alamar blue). The format is cell-based. The conditions noted are these: Homo sapiens, NCI-H358, Table 8, 48 hours. The protocol: as §1
Data set [7] deals with T1, GppNHp-loaded KRASG12D (Homo sapiens, UniProt P01116, G12D).
T1 construct: made in house; host or cells: Escherichia coli BL21-Gold (DE3)
T1 sequence (P01116 1-169 isoform P01116-2 G12D): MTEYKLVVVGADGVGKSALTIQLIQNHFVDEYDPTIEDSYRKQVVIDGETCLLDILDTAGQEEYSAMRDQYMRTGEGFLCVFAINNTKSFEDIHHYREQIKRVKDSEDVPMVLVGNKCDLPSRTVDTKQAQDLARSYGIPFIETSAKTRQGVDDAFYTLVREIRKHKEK
The experiment in a line: Isothermal titration calorimetry. The format is binding. The conditions noted are these: ITC, 25° C.; read-out: dissociation constant. The protocol:
Isothermal Titration Calorimetry (ITC)
All ITC experiments were carried out at 25° C. on a MicoCal Auto-ITC200 system (GE Healthcare).
450 μL of the compound solution was loaded into the cell at 250 μM in ITC buffer (25 mM Tris pH 7.4, 1 mM TCEP, 100 mM NaCl, 5 mM MgCl2, 0.05% Tween-20) with a final DMSO concentration at 1.25% (v/v). KRAS^G12D⋅GppNHp was buffer exchanged into same ITC buffer using Amicon Ultra 10 kDa size exclusion filter spin columns (buffer replaced with ITC buffer four times). Prior to loading 130 μL of KRAS^G12D⋅GppNHp into the syringe at 2.5 mM, DMSO was added to match the amount DMSO present in the cell. ITC titration experiments were carried out at 25° C. with 19 injections, 2 μl per injection, and 180 seconds between each injection. Reference cell power was set to 5 μcal/sec. A control experiment was performed where ITC buffer was titrated into compound 31MEW44 alone to account for heat released due to dilution. This background was subtracted from test data before the final dissociation constant was obtained. Data were analyzed using the one-site binding model in Origin 7.1 software. The dissociation constant, Kd, was calculated according to equation Kd=1/Ka. Gibbs free energy, ΔG, was calculated from the equation ΔG=−RTInKa. −TΔS was calculated from the equation ΔG=ΔH−TΔS. All other parameters, Ka, n, ΔH, were determined directly from the titration data.

For data set [8], the system named is RAS-RAF and RAS-PI3K interaction in BJeLR cells. The data set can be described thus: Immunoprecipitation with HRAS antibody, blot for cRAF and PI3Kgamma. The format is cell-based. To be noted: 10% FBS. As for the experimental part: BJeLR cells were seeded 16 hours prior to use in 10% FBS in DMEM. […] After 6 hours cells were washed twice with ice cold buffer (25 mM tris, 100 mM NaCl, 1 mM TCEP, 5 mM MgCl2, 0.1% tween-20 and 1 protease inhibitor/25 mL). Cells were scrapped, pelleted at 13,000 rpm for 10 minutes at 4° C., then passed through a 26 gauge needle several times. The solution was spun down a second time at 13,000 rpm for 15 minutes at 4° C., to remove unlysed cells and debris. HRAS antibody (Santa cruz, SC-520) was then added to the lysate (1:100) and the solution was rocked at 4° C. for 16 hours. Protein A agrose beads were then added and the solution was rotated at 4° C. for an additional 6 hours. The solutions were spun down at 1500×g for 2 minutes and the supernatant was removed by syringe. The beads were washed twice by this process with buffer, then resuspended in 2.5×SDS.

Data set [9] can be described thus: In vivo pharmacokinetic analysis. Further details: species or system male C57 adult mice. To be noted: male, C57, mouse, 20 mg/kg, plasma over 12 hours. The protocol: In Vivo Pharmacokinetic Analysis
The dose formulation was prepared freshly in the morning of dosing day. A total of 42 male C57 adult mice, each approximately 25 grams in body weight, were administered at 20 mg/kg dose via a single IV bolus injection or a single oral gavage. Blood samples (approximately 400 μL) were collected from three mice per time point via terminal brachial bleed at pre-dose and 30 minutes, 1 hour, 2 hours, 4 hours, 8 hours and 12 hours post-dose. Blood samples were placed into tubes containing K2 EDTA anti-coagulant, and centrifuged at about 2,100 g (rcf) for 10 minutes at 4° C. to separate plasma. Following centrifugation, the resulting plasma was transferred to clean tubes and stored frozen at −80° C. The mouse plasma samples (50 μL) were aliquoted, spiked with internal standard (250 ng/mL tolbutamide), and then extracted with protein precipitation. The supernatant of each sample was diluted and injected into a LC-MS/MS system. The data acquisition and processing were performed using a Sciex API 5500 mass spectrometer with Analyst 1.6.2 software. The standard curve range for the plasma samples was analyzed using a calibration curve of 0.5-5000 ng/mL. The pharmacokinetic (PK) analysis and interpretation of the results were conducted using Winnonlin Phoenix Software.

Data set [10] has as its system primary T-ALL cells with wild-type NRAS. The data set can be described thus: Viability of patient-derived T-ALL samples cultured in vitro, wild-type NRAS. To be noted: four samples, 5 μM, 72 hours. The format is cell-based, human. As for the experimental part:
Primary Cell Co-Culture and In Vitro Cell Viability Assays.
Cells were harvested 72 hours after treatment and analyzed cell viability using the BD cell viability kit with liquid counting beads (BD Bioscience) gating out stroma cells (GFP+), dead cells and particles (PI+). We acquired data using a FACSCanto II flowcytometer (BD Bioscience) and analyzed it using FlowJo software (Tree Star, Inc.). Viability data is represented as % relative to vehicle treatment.

As for `NC1(C(=O)NCCCn2cc(-c3ccc(OC(F)(F)F)cc3)c3cc(CN4CCN(Cc5c(Cl)cccc5Cl)CC4)ccc32)CCNCC1` [Compound 31MEW44, 4-amino-N-(3-(5-((4-(2,6-dichlorobenzyl)piperazin-1-yl)methyl)-3-(4-(trifluoromethoxy)phenyl)-1H-indol-1-yl)propyl)piperidine-4-carboxamide], the EC50 – broadly, the concentration giving half of the maximal effect – in data set [1] stood at 4.8 µM; in [2] it was 4.9 µM; in data set [3] it was 8.8 µM; in [4], 4.9 µM; in [5], 2.4 µM; in data set [6] it was 2.8 µM. The Kd in data set [7] worked out at 34 µM. Also, in data set [8], the “co-immunoprecipitated cRAF and PI3K” value was “decreased levels of co-immunoprecipitated cRAF and PI3K”. Besides, the half-life – broadly, how long it takes for the measured level to halve – in [9] (intravenous delivery, no elimination) is more than 12 h; in [9] (oral delivery), 3.1 h. The viability entry in data set [10] is on record as “no observed decrease in viability”.
